In publication PMC10590056, “Design and synthesis of cabotegravir derivatives bearing 1,2,3-triazole and evaluation of anti-liver cancer activity” (Frontiers in Pharmacology, 2023):

Tested on: HepG2 cells
Experiment: Cell cycle analysis (PI, flow cytometry)
Assay type: cell-based
Details: 24 h; for Percentage of cells in the S phase (change vs control): HepG2, 2-8 μM
Description: HepG2 cells were seeded in a 6-well plate at a density of 5 × 10^6 cells/well and treated with either KJ-5 or KJ-12 at concentrations of 2, 4, or 8 μM for 24 h. Cells were then collected and responded in […] of cold PBS. Subsequently, 700 μL of cold 70% ethanol was added to the cells and gently mixed by inversion on ice for 1 h. Cells were then centrifuged at 2,000 rpm for 10 min, washed once with 2 mL of cold PBS, and the supernatant was discarded. The cell pellet was resuspended in 250 μL of cold PBS, followed by the addition of 10 μL of RNase at a final concentration of 0.4 mg/mL and incubated at 37°C for 30 min. An additional 250 μL of PBS was added, followed by the addition of 5 μL of PI solution at a final concentration of 10 μg/mL. The samples were incubated […] in the dark overnight at 4°C. Finally, the samples were analyzed by flow cytometry.

Row | Structure (SMILES) | Percentage of cells in the G1 phase (HepG2, 2 μM) | Percentage of cells in the G2/M phase (HepG2, 2 μM) | Percentage of cells in the G1 phase (HepG2, 4 μM) | Percentage of cells in the G2/M phase (HepG2, 4 μM) | Percentage of cells in the G1 phase (HepG2, 8 μM) | Percentage of cells in the G2/M phase (HepG2, 8 μM) | Percentage of cells in the S phase (change vs control)
1 | COc1c2n(cc(C(=O)Nc3cccc(-c4cn(-c5cc(C(F)(F)F)cc(C(F)(F)F)c5)nn4)c3)c1=O)C[C@H]1OC[C@H](C)N1C2=O [KJ-5] | 21.2% | 50.4% | 15% | 58.3% | 13.5% | 62.6% | did not change significantly
2 | COc1c2n(cc(C(=O)Nc3cccc(-c4cn(-c5c(C)cc(C)cc5C)nn4)c3)c1=O)C[C@H]1OC[C@H](C)N1C2=O [KJ-12] | 47.4% | 22.2% | 25% | 47.5% | 16.4% | 59.7% | remained unchanged substantially
